Assay results reported in PubChem BioAssay AID1963963 (Molecular Pharmacology Branch, DTP, NCI, 2024).

Test system: 958667-338-R-J2-PDC tumor spheroids viability
Assay: Anticancer human tumor 958667-338-R-J2-PDC patient-derived colon adenocarcinoma cell line growth inhibition [PI3K]
Settings: spheroids with HUVEC and MSC; for IC50: curve of first compound; for viability, T/C: stronger effect = lower value
Text: Combinatorial screen of targeted agents with the PI3K inhibitors inavolisib, alpelisib, duvelisib, and copanlisib in multi-cell type tumor spheroids
A high-throughput screen of multi-cell type tumor spheroids was designed to identify active combinations of targeted small molecules and PI3K pathway inhibitors. Complex spheroids include a stromal component modeled by human endothelial cells (HUVEC) and fibroblasts modeled by human mesenchymal stem cells (MSCs). The concentration ranges selected for each drug and investigational agent were based upon clinically achievable concentrations if the clinical Cmax of the agent was known.
Compounds. The drugs and investigational agents: inavolisib (NSC800729), alpelisib (NSC765974), duvelisib (NSC772469), copanlisib (NSC816437), ipatasertib (NSC767898), afuresertib (NSC778305), talazoparib (NSC767125), sapanisertib (NSC764658), selumetinib (NSC741078), tovorafenib (DAY101, NSC766906), vemurafenib (NSC761431), ravoxertinib (NSC781343), sotorasib (NSC818433), MRTX1133 (NSC 836407), abemaciclib (NSC 768073), palbociclib (NSC758247), venetoclax (NSC 766270), SY5609 (NSC837396), enzalutamide (NSC755605), and darolutamide (NSC825331), were obtained from the National Cancer Institute (NCI) Developmental Therapeutics Program Chemical Repository. The FDA-approved anticancer drug set is available from the NCI Developmental Therapeutics Program. […] The stock solutions were prepared in dimethyl sulfoxide (DMSO, Sigma-Aldrich, St. Louis, MO, cat. D2650) at 800-fold the tested concentration and stored at -70 degrees C prior to their use. All drugs and investigational agents were tested over a range starting from a high concentration at or near the clinical Cmax and decreasing in half-log increments. If the clinical Cmax for an agent had not been determined, the highest concentration tested was 10 microM.
Cell Culture. All cells were maintained in an incubator at 37 degrees C and 5% CO2 with 95% humidity. The PDC lines were cultured according to standard operating procedures established by the NCI PDMR (https://pdmr.cancer.gov/sops/default.htm). All PDCs were thawed and cultured in Matrigel-coated flasks prepared with a working solution of 1X Ham's F-12 nutrient mix, without supplementation (Invitrogen, Waltham, MA, cat. 11765054), 100 U/mL penicillin-streptomycin (Invitrogen, cat. 15140122), and 2.5% Matrigel (Corning Inc., Corning, NY, cat. 354248) for the first three passages. The 354836-022-R-J1-PDC, 475296-252-R-J1-PDC, and 997726-040-R-J2-PDC lines were cultured in 6A media, which includes advanced DMEM/F-12 (Thermo Fisher Scientific, cat. 12634028), 10 mM HEPES (Thermo Fisher Scientific, cat. 15630080), 1X GlutaMAX supplement (Thermo Fisher Scientific, cat. 35050061), 0.1 mg/mL primocin (InvivoGen, San Diego, CA, cat. ant-pm-2), 10% defined fetal bovine serum, heat inactivated (HyClone Laboratories Inc., Logan, UT, cat. SH30070.03HI), 50% L-WRN conditioned media (ATCC, cat. CRL-3276), 1.25 mM N-Acetyl-L-cysteine (Sigma-Aldrich, cat. A9165), 10 mM nicotinamide (Sigma-Aldrich, cat. N0636), 1X B-27 supplement (Thermo Fisher Scientific, cat. 17504044), 1X N-2 supplement (Thermo Fisher Scientific, cat. 17502048), and 10 microM Y-27632 dihydrochloride (Tocris Bioscience, Bristol, United Kingdom, cat. 1254). The 624824-186-R-J2-PDC line was cultured in 6C/Colon 1B media, which includes all 6A media components plus 50 ng/mL human EGF recombinant protein (Thermo Fisher Scientific, cat. PHG0311). […]
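Also: spheroids exposed to compounds for seven days before readout.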

Cn1ncnc1[C@H]1c2n[nH]c(=O)c3cc(F)cc(c23)N[C@@H]1c1ccc(F)cc1 + COc1c(OCCCN2CCOCC2)ccc2c3n(c(=NC(=O)c4cnc(N)nc4)nc12)CCN3 gave an IC50 (second compound 0.00316 µM) of over 100 nM, an IC50 (second compound 0.01 µM) of over 100 nM and an IC50 (second compound 0.0316 µM) of over 100 nM. It also gave an IC50 (second compound 0.1 µM) of over 100 nM, an IC50 (second compound 0.316 µM) of under 0.316 nM and an IC50 (second compound 1 µM) of under 0.316 nM. For the same compound, the viability, T/C (second compound 0.00316 µM, first compound 0.000316 µM) was 96.3%, the viability, T/C (second compound 0.00316 µM, first compound 0.001 µM) was 104% and the viability, T/C (second compound 0.00316 µM, first compound 0.00316 µM) was 93.6%. It also gave a viability, T/C (second compound 0.00316 µM, first compound 0.01 µM) of 102%, a viability, T/C (second compound 0.00316 µM, first compound 0.0316 µM) of 87.8% and a viability, T/C (second compound 0.00316 µM, first compound 0.1 µM) of 75.8%. The viability, T/C (second compound 0.01 µM, first compound 0.000316 µM) was 76.3%, the viability, T/C (second compound 0.01 µM, first compound 0.001 µM) was 72.5% and the viability, T/C (second compound 0.01 µM, first compound 0.00316 µM) was 94.2%. It also gave a viability, T/C (second compound 0.01 µM, first compound 0.01 µM) of 90.7%, a viability, T/C (second compound 0.01 µM, first compound 0.0316 µM) of 80.5% and a viability, T/C (second compound 0.01 µM, first compound 0.1 µM) of 87.3%. The viability, T/C (second compound 0.0316 µM, first compound 0.000316 µM) was 69.4%, the viability, T/C (second compound 0.0316 µM, first compound 0.001 µM) was 74.4% and the viability, T/C (second compound 0.0316 µM, first compound 0.00316 µM) was 98.4%. The viability, T/C (second compound 0.0316 µM, first compound 0.01 µM) was 79.2%, the viability, T/C (second compound 0.0316 µM, first compound 0.0316 µM) was 79.8% and the viability, T/C (second compound 0.0316 µM, first compound 0.1 µM) was 61.9%. It also gave a viability, T/C (second compound 0.1 µM, first compound 0.000316 µM) of 62%, a viability, T/C (second compound 0.1 µM, first compound 0.001 µM) of 61.7% and a viability, T/C (second compound 0.1 µM, first compound 0.00316 µM) of 59.6%. For the same compound, the viability, T/C (second compound 0.1 µM, first compound 0.01 µM) was 66.8%, the viability, T/C (second compound 0.1 µM, first compound 0.0316 µM) was 57.3% and the viability, T/C (second compound 0.1 µM, first compound 0.1 µM) was 56%. It also gave a viability, T/C (second compound 0.316 µM, first compound 0.000316 µM) of 37%, a viability, T/C (second compound 0.316 µM, first compound 0.001 µM) of 38% and a viability, T/C (second compound 0.316 µM, first compound 0.00316 µM) of 43.8%. The viability, T/C (second compound 0.316 µM, first compound 0.01 µM) was 46.1%, the viability, T/C (second compound 0.316 µM, first compound 0.0316 µM) was 34.9% and the viability, T/C (second compound 0.316 µM, first compound 0.1 µM) was 34.9%. The viability, T/C (second compound 1 µM, first compound 0.000316 µM) was 19.7%, the viability, T/C (second compound 1 µM, first compound 0.001 µM) was 15.6% and the viability, T/C (second compound 1 µM, first compound 0.00316 µM) was 21.7%. It also gave a viability, T/C (second compound 1 µM, first compound 0.01 µM) of 21.1%, a viability, T/C (second compound 1 µM, first compound 0.0316 µM) of 22.5% and a viability, T/C (second compound 1 µM, first compound 0.1 µM) of 14.9%.
